The record followed here is patent US11034650B2, “Compounds useful for treating a Mannheimia haemolytica or Histophilus somni infection” (Intervet Inc., priority 2016, dated 2021).

Each structure is given as a SMILES string. In brackets after ≈: the same amount, converted by molar mass.

What all share (type): cell-based
Assay [1] relates to Mannheimia haemolytica MH 6357 (M7/2, reference strain, cattle infection strain). Kind of assay: MIC, broth-microdilution (CLSI VET01-A4), strain MH 6357. The following applies: Mannheimia haemolytica strain MH 6357, broth-microdilution; unit assumed. In outline:
(§1)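 Broth microdilution per CLSI VET01-A4, using trays with a doubling dilution series of compound; results interpreted per CLSI VET01-S3. MIC taken as lowest concentration with no turbidity visible to the unaided eye.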
A general note: In broth dilution the organism is exposed to a series of concentrations in liquid medium.

Assay [2] has as its system Mannheimia haemolytica MH 6374 (ATCC 33396, reference strain). Kind of assay: MIC, broth-microdilution (CLSI VET01-A4), strain MH 6374. The following applies: Mannheimia haemolytica strain MH 6374, broth-microdilution; unit assumed. Put shortly: as §1
Assay [3] concerns Mannheimia haemolytica MH 10720 (154, BRD field isolate). Put plainly: MIC, broth-microdilution (CLSI VET01-A4), strain MH 10720. The following applies: Mannheimia haemolytica strain MH 10720, broth-microdilution; unit assumed. Put shortly: as §1
In assay [4] the test system is Mannheimia haemolytica MH 12587 (1071, BRD field isolate, macrolide-resistance: erm+, E+). Kind of assay: MIC, broth-microdilution (CLSI VET01-A4), strain MH 12587. To be noted: Mannheimia haemolytica strain MH 12587, broth-microdilution; unit assumed. In outline: as §1
The test system of assay [5] is Mannheimia haemolytica MH 13065 (XB0446-6003.9, BRD field isolate). Put plainly: MIC, broth-microdilution (CLSI VET01-A4), strain MH 13065. The following applies: Mannheimia haemolytica strain MH 13065, broth-microdilution; unit assumed. In outline: as §1
In assay [6] the test system is Mannheimia haemolytica MH 13093 (XB0472-6014.1, BRD field isolate). Put plainly: MIC, broth-microdilution (CLSI VET01-A4), strain MH 13093. To be noted: Mannheimia haemolytica strain MH 13093, broth-microdilution; unit assumed. In outline:
as §1

Assay [7] has as its system Pasteurella multocida PM 6267 (P 2225 (L386), reference strain, mouse infection strain). Kind of assay: MIC, broth-microdilution (CLSI VET01-A4), strain PM 6267. The following applies: Pasteurella multocida strain PM 6267, broth-microdilution; unit assumed. Put shortly:
as §1

Assay [8] relates to Pasteurella multocida PM 6391 (ATCC 43137, reference strain). Kind of assay: MIC, broth-microdilution (CLSI VET01-A4), strain PM 6391. The following applies: Pasteurella multocida strain PM 6391, broth-microdilution; unit assumed. Put shortly: as §1
The test system of assay [9] is Pasteurella multocida PM 10775 (080130003051, BRD field isolate). Put plainly: MIC, broth-microdilution (CLSI VET01-A4), strain PM 10775. To be noted: Pasteurella multocida strain PM 10775, broth-microdilution; unit assumed. Put shortly:
as §1

The subject of assay [10] is Pasteurella multocida PM 12080 (IV102277-0093, BRD field isolate). Kind of assay: MIC, broth-microdilution (CLSI VET01-A4), strain PM 12080. To be noted: Pasteurella multocida strain PM 12080, broth-microdilution; unit assumed. In outline: as §1

`COc1ccc(CNCc2ccc(C#Cc3ccc(C(=O)N[C@H](C(=O)NO)C(C)(C)SC)cc3)cc2)cc1` [Compound 240] registered an MIC MH 6357 in assay [1] of 1.6 µg/mL (≈ 3.01 µM). This molecule also gave an MIC MH 6374 in [2] of 1.6 µg/mL (≈ 3.01 µM). Moreover, the MIC MH 10720 in assay [3] was determined as 0.4 µg/mL (≈ 0.752 µM). Besides, the MIC MH 12587 in assay [4] came to 1.6 µg/mL (≈ 3.01 µM). The molecule further displayed an MIC MH 13065 in assay [5] of 1.6 µg/mL (≈ 3.01 µM). Besides, the MIC MH 13093 in assay [6] came to 1.6 µg/mL (≈ 3.01 µM). The molecule further displayed an MIC PM 6267 in assay [7] of 0.2 µg/mL (≈ 0.376 µM). Besides, in assay [8], the MIC PM 6391 came out at 0.8 µg/mL (≈ 1.5 µM). Besides, the MIC PM 10775 in assay [9] was determined as 0.2 µg/mL (≈ 0.376 µM). The molecule also came in with an MIC PM 12080 in [10] of 0.4 µg/mL (≈ 0.752 µM).
In [1], `CSC(C)(C)[C@H](NC(=O)c1ccc(C#Cc2ccc(CNCc3ccncc3)cc2)cc1)C(=O)NO` [Compound 241] gave an MIC MH 6357 of 0.4 µg/mL (≈ 0.796 µM). In [2], this molecule displayed an MIC MH 6374 of 0.8 µg/mL (≈ 1.59 µM). In addition, in assay [3], the MIC MH 10720 was ≤ 0.1 µg/mL. In [4], the MIC MH 12587 stood at 0.8 µg/mL (≈ 1.59 µM). The same molecule gave an MIC MH 13065 in assay [5] of 0.4 µg/mL (≈ 0.796 µM). The molecule also showed an MIC MH 13093 in assay [6] of 0.4 µg/mL (≈ 0.796 µM). Moreover, the MIC PM 6267 in assay [7] was ≤ 0.1 µg/mL. In addition, the MIC PM 6391 in [8] is ≤ 0.1 µg/mL. Also, the MIC PM 10775 in assay [9] is ≤ 0.1 µg/mL. In addition, in assay [10], the MIC PM 12080 was ≤ 0.1 µg/mL.
On to `CSC(C)(C)[C@H](NC(=O)c1ccc(C#Cc2ccc(CN3CCCC3)cc2)cc1)C(=O)NO` [Compound 242], for which the MIC MH 6357 in [1] worked out at 6.3 µg/mL (≈ 13.5 µM). In [2], this molecule came in with an MIC MH 6374 of 6.3 µg/mL (≈ 13.5 µM). The MIC MH 10720 in [3] is 0.8 µg/mL (≈ 1.72 µM). The same molecule returned an MIC MH 12587 in [4] of 6.3 µg/mL (≈ 13.5 µM). In addition, the MIC MH 13065 in assay [5] was 3.1 µg/mL (≈ 6.66 µM). This molecule yielded an MIC MH 13093 in assay [6] of 3.1 µg/mL (≈ 6.66 µM). The MIC PM 6267 in assay [7] stood at 0.4 µg/mL (≈ 0.859 µM). The molecule further gave an MIC PM 6391 in [8] of 1.6 µg/mL (≈ 3.44 µM). This molecule showed an MIC PM 10775 in assay [9] of 0.2 µg/mL (≈ 0.43 µM). Also, the MIC PM 12080 in assay [10] worked out at 0.8 µg/mL (≈ 1.72 µM).
`CSC(C)(C)[C@H](NC(=O)c1ccc(C#Cc2ccc(CNC3CCC3)cc2)cc1)C(=O)NO` [Compound 243]: the MIC MH 6357 in assay [1] came out at 3.1 µg/mL (≈ 6.66 µM). The molecule also had an MIC MH 6374 in [2] of 3.1 µg/mL (≈ 6.66 µM). This molecule registered an MIC MH 10720 in assay [3] of 0.4 µg/mL (≈ 0.859 µM). This molecule had an MIC MH 12587 in assay [4] of 3.1 µg/mL (≈ 6.66 µM). The MIC MH 13065 in [5] is 1.6 µg/mL (≈ 3.44 µM). Further, in assay [6], the MIC MH 13093 turned out to be 1.6 µg/mL (≈ 3.44 µM). Also, the MIC PM 6267 in [7] was 0.2 µg/mL (≈ 0.43 µM). For the same molecule, the MIC PM 6391 in [8] is 0.8 µg/mL (≈ 1.72 µM). Besides, in assay [9], the MIC PM 10775 was ≤ 0.1 µg/mL. This molecule returned an MIC PM 12080 in assay [10] of 0.4 µg/mL (≈ 0.859 µM).
Molecule `CSC(C)(C)[C@H](NC(=O)c1ccc(C#Cc2ccc(CNC3CCCC3)cc2)cc1)C(=O)NO` [Compound 244] showed an MIC MH 6357 in assay [1] of 3.1 µg/mL (≈ 6.46 µM). Further, the MIC MH 6374 in assay [2] came out at 6.3 µg/mL (≈ 13.1 µM). The MIC MH 10720 in [3] came out at 1.6 µg/mL (≈ 3.34 µM). This molecule also came in with an MIC MH 12587 in assay [4] of 6.3 µg/mL (≈ 13.1 µM). The molecule further returned an MIC MH 13065 in [5] of 3.1 µg/mL (≈ 6.46 µM). Besides, the MIC MH 13093 in [6] was 6.3 µg/mL (≈ 13.1 µM). Also, the MIC PM 6267 in [7] was determined as 0.4 µg/mL (≈ 0.834 µM). Further, the MIC PM 6391 in assay [8] was found to be 1.6 µg/mL (≈ 3.34 µM). Also, the MIC PM 10775 in assay [9] turned out to be 0.2 µg/mL (≈ 0.417 µM). In addition, the MIC PM 12080 in [10] was determined as 0.8 µg/mL (≈ 1.67 µM).
Consider `CCCNCc1ccc(C#Cc2ccc(C(=O)N[C@H](C(=O)NO)C(C)(C)SC)cc2)cc1` [Compound 245], for which the MIC MH 6357 in assay [1] stood at 3.1 µg/mL (≈ 6.83 µM). In [2], this molecule gave an MIC MH 6374 of 3.1 µg/mL (≈ 6.83 µM). In addition, in assay [3], the MIC MH 10720 was determined as 0.4 µg/mL (≈ 0.882 µM). For the same molecule, the MIC MH 12587 in assay [4] is 3.1 µg/mL (≈ 6.83 µM). In assay [5], this molecule had an MIC MH 13065 of 1.6 µg/mL (≈ 3.53 µM). Besides, in [6], the MIC MH 13093 is 3.1 µg/mL (≈ 6.83 µM). Besides, in assay [7], the MIC PM 6267 is 0.4 µg/mL (≈ 0.882 µM). Also, the MIC PM 6391 in [8] was found to be 0.8 µg/mL (≈ 1.76 µM). Also, the MIC PM 10775 in [9] was ≤ 0.1 µg/mL. The molecule further gave an MIC PM 12080 in assay [10] of 0.8 µg/mL (≈ 1.76 µM).
For the molecule `CSC(C)(C)[C@H](NC(=O)c1ccc(C#Cc2ccc(CNCC#N)cc2)cc1)C(=O)NO` [Compound 246], in assay [1], the MIC MH 6357 was 0.4 µg/mL (≈ 0.888 µM). Further, the MIC MH 6374 in [2] is 0.8 µg/mL (≈ 1.78 µM). For the same molecule, in assay [3], the MIC MH 10720 is ≤ 0.1 µg/mL. The MIC MH 12587 in [4] was 0.8 µg/mL (≈ 1.78 µM). Also, the MIC MH 13065 in assay [5] was determined as 0.8 µg/mL (≈ 1.78 µM). In assay [6], this molecule yielded an MIC MH 13093 of 0.4 µg/mL (≈ 0.888 µM). Also, in assay [7], the MIC PM 6267 is ≤ 0.1 µg/mL. The molecule also showed an MIC PM 6391 in [8] of 0.2 µg/mL (≈ 0.444 µM). Further, the MIC PM 10775 in [9] was ≤ 0.1 µg/mL. The molecule also had an MIC PM 12080 in [10] of 0.2 µg/mL (≈ 0.444 µM).
For `CSC(C)(C)[C@H](NC(=O)c1ccc(C#Cc2ccc(CNCc3cccnc3)cc2)cc1)C(=O)NO` [Compound 247], the MIC MH 6357 in [1] is 0.4 µg/mL (≈ 0.796 µM). This molecule gave an MIC MH 6374 in [2] of 0.8 µg/mL (≈ 1.59 µM). The molecule also gave an MIC MH 10720 in assay [3] of 0.2 µg/mL (≈ 0.398 µM). The molecule further displayed an MIC MH 12587 in [4] of 0.8 µg/mL (≈ 1.59 µM). The molecule also came in with an MIC MH 13065 in assay [5] of 0.4 µg/mL (≈ 0.796 µM). This molecule had an MIC MH 13093 in assay [6] of 0.8 µg/mL (≈ 1.59 µM). Further, the MIC PM 6267 in [7] was ≤ 0.1 µg/mL. The same molecule returned an MIC PM 6391 in [8] of 0.8 µg/mL (≈ 1.59 µM). The MIC PM 10775 in assay [9] was ≤ 0.1 µg/mL. The molecule also yielded an MIC PM 12080 in assay [10] of 0.2 µg/mL (≈ 0.398 µM).
